Laboratory results taken from ChEMBL document CHEMBL3045406, “Enantioselective Relieving Activity of α-Methylbenzylphenylureas toward Bensulfuron-methyl Injury to Rice (Oryza sativa)” (Biosci Biotechnol Biochem, 1999).

Experiments:
Oryza sativa [1] = assay: Relieving activity against bensulfuron-methyl induced injury to Oryza sativa (rice) assessed as growth rate at 1 uM (Rbv = 46 to 53%); format: functional
Oryza sativa [2] = assay: Relieving activity against bensulfuron-methyl induced injury to Oryza sativa (rice) assessed as growth rate at 10 uM (Rbv = 46 to 53%); format: functional
Oryza sativa [3] = assay: Safener indices, ratio of compound effect of Oryza sativa (rice) growth rate to relieving activity against bensulfuron-methyl induced injury to Oryza sativa growth rate at 1 uM
Oryza sativa [4] = assay: Effect on Oryza sativa (rice) assessed as growth rate at 0.1 uM relative to control; format: organism-based; conditions: in vivo
Oryza sativa [5] = assay: Effect on Oryza sativa (rice) assessed as growth rate at 10 uM relative to control; format: organism-based; conditions: in vivo
Oryza sativa [6] = assay: Safener indices, ratio of compound effect of Oryza sativa (rice) growth rate to relieving activity against bensulfuron-methyl induced injury to Oryza sativa growth rate at 10 uM
[7] = Hydrophobicity, log K of the compound; format: physicochemical; conditions: octanol/water
Oryza sativa [8] = assay: Safener indices, ratio of compound effect of Oryza sativa (rice) growth rate to relieving activity against bensulfuron-methyl induced injury to Oryza sativa growth rate at 0.1 uM
Oryza sativa [9] = assay: Effect on Oryza sativa (rice) assessed as growth rate at 1 uM relative to control; format: organism-based; conditions: in vivo
Oryza sativa [10] = assay: Relieving activity against bensulfuron-methyl induced injury to Oryza sativa (rice) assessed as growth rate at 0.1 uM (Rbv = 46 to 53%); format: functional

## CC(C)c1ccccc1NC(=O)N[C@@H](C)c1ccccc1
Oryza sativa [1]
  Activity: 48%
Oryza sativa [2]
  Activity: 52%
Oryza sativa [3]
  Ratio: 7
Oryza sativa [4]
  Activity: 99%
Oryza sativa [5]
  Activity: 93%
Oryza sativa [6]
  Ratio: 15
[7]
  log K: 0.487
Oryza sativa [8]
  Ratio: 1
Oryza sativa [9]
  Activity: 96%
Oryza sativa [10]
  Activity: 46%

## CC(C)c1cccc(NC(=O)N[C@H](C)c2ccccc2)c1
Oryza sativa [1]
  Activity: 48%
Oryza sativa [2]
  Activity: 43%
Oryza sativa [3]
  Ratio: 27
Oryza sativa [4]
  Activity: 74%
Oryza sativa [5]
  Activity: 44%
Oryza sativa [6]
  Ratio: 29
[7]
  log K: 0.58
Oryza sativa [8]
  Ratio: 16
Oryza sativa [9]
  Activity: 61%
Oryza sativa [10]
  Activity: 45%

## CC(C)c1cccc(NC(=O)N[C@@H](C)c2ccccc2)c1
Oryza sativa [1]
  Activity: 55%
Oryza sativa [2]
  Activity: 68%
Oryza sativa [3]
  Ratio: 26
Oryza sativa [4]
  Activity: 95%
Oryza sativa [5]
  Activity: 86%
Oryza sativa [6]
  Ratio: 47
[7]
  log K: 0.58
Oryza sativa [8]
  Ratio: 6
Oryza sativa [9]
  Activity: 84%
Oryza sativa [10]
  Activity: 47%

## CC(C)c1ccc(NC(=O)N[C@H](C)c2ccccc2)cc1
Oryza sativa [1]
  Activity: 67%
Oryza sativa [2]
  Activity: 49%
Oryza sativa [3]
  Ratio: 47
Oryza sativa [4]
  Activity: 99%
Oryza sativa [5]
  Activity: 49%
Oryza sativa [6]
  Ratio: 34
[7]
  log K: 0.577
Oryza sativa [8]
  Ratio: 7
Oryza sativa [9]
  Activity: 79%
Oryza sativa [10]
  Activity: 49%

## CC(C)c1ccc(NC(=O)N[C@@H](C)c2ccccc2)cc1
Oryza sativa [1]
  Activity: 83%
Oryza sativa [2]
  Activity: 79%
Oryza sativa [3]
  Ratio: 69
Oryza sativa [4]
  Activity: 98%
Oryza sativa [5]
  Activity: 86%
Oryza sativa [6]
  Ratio: 66
[7]
  log K: 0.577
Oryza sativa [8]
  Ratio: 21
Oryza sativa [9]
  Activity: 96%
Oryza sativa [10]
  Activity: 57%

## CCCc1ccc(NC(=O)N[C@H](C)c2ccccc2)cc1
Oryza sativa [1]
  Activity: 33%
Oryza sativa [2]
  Activity: 38%
Oryza sativa [3]
  Ratio: 20
Oryza sativa [4]
  Activity: 33%
Oryza sativa [5]
  Activity: 35%
Oryza sativa [6]
  Ratio: 24
[7]
  log K: 0.602
Oryza sativa [8]
  Ratio: 18
Oryza sativa [9]
  Activity: 31%
Oryza sativa [10]
  Activity: 32%

## CCCc1ccc(NC(=O)N[C@@H](C)c2ccccc2)cc1
Oryza sativa [1]
  Activity: 68%
Oryza sativa [2]
  Activity: 69%
Oryza sativa [3]
  Ratio: 47
Oryza sativa [4]
  Activity: 97%
Oryza sativa [5]
  Activity: 73%
Oryza sativa [6]
  Ratio: 50
[7]
  log K: 0.602
Oryza sativa [8]
  Ratio: 30
Oryza sativa [9]
  Activity: 76%
Oryza sativa [10]
  Activity: 66%

## C[C@@H](NC(=O)Nc1ccccc1C(C)(C)C)c1ccccc1
Oryza sativa [1]
  Activity: 61%
Oryza sativa [2]
  Activity: 40%
Oryza sativa [3]
  Ratio: 24
Oryza sativa [4]
  Activity: 100%
Oryza sativa [5]
  Activity: 17%
Oryza sativa [6]
  Ratio: 34
[7]
  log K: 0.535
Oryza sativa [8]
  Ratio: 15
Oryza sativa [9]
  Activity: 95%
Oryza sativa [10]
  Activity: 58%

## C[C@H](NC(=O)Nc1ccccc1C(C)(C)C)c1ccccc1
Oryza sativa [1]
  Activity: 57%
Oryza sativa [2]
  Activity: 66%
Oryza sativa [3]
  Ratio: 14
Oryza sativa [4]
  Activity: 101%
Oryza sativa [5]
  Activity: 100%
Oryza sativa [6]
  Ratio: 31
[7]
  log K: 0.535
Oryza sativa [8]
  Ratio: 3
Oryza sativa [9]
  Activity: 99%
Oryza sativa [10]
  Activity: 52%

## C[C@@H](NC(=O)Nc1ccc(C(C)(C)C)cc1)c1ccccc1
Oryza sativa [1]
  Activity: 64%
Oryza sativa [2]
  Activity: 57%
Oryza sativa [3]
  Ratio: 35
Oryza sativa [4]
  Activity: 100%
Oryza sativa [5]
  Activity: 53%
Oryza sativa [6]
  Ratio: 42
[7]
  log K: 0.673
Oryza sativa [8]
  Ratio: 15
Oryza sativa [9]
  Activity: 88%
Oryza sativa [10]
  Activity: 58%

## C[C@H](NC(=O)Nc1ccc(C(C)(C)C)cc1)c1ccccc1
Oryza sativa [1]
  Activity: 65%
Oryza sativa [2]
  Activity: 68%
Oryza sativa [3]
  Ratio: 37
Oryza sativa [4]
  Activity: 100%
Oryza sativa [5]
  Activity: 64%
Oryza sativa [6]
  Ratio: 53
[7]
  log K: 0.673
Oryza sativa [8]
  Ratio: 4
Oryza sativa [9]
  Activity: 88%
Oryza sativa [10]
  Activity: 52%

## CCCCc1ccc(NC(=O)N[C@H](C)c2ccccc2)cc1
Oryza sativa [1]
  Activity: 38%
Oryza sativa [2]
  Activity: 28%
Oryza sativa [3]
  Ratio: 26
Oryza sativa [4]
  Activity: 100%
Oryza sativa [5]
  Activity: 28%
Oryza sativa [6]
  Ratio: 16
[7]
  log K: 0.76
Oryza sativa [8]
  Ratio: 13
Oryza sativa [9]
  Activity: 32%
Oryza sativa [10]
  Activity: 57%

## CCCCc1ccc(NC(=O)N[C@@H](C)c2ccccc2)cc1
Oryza sativa [1]
  Activity: 68%
Oryza sativa [2]
  Activity: 56%
Oryza sativa [3]
  Ratio: 50
Oryza sativa [4]
  Activity: 98%
Oryza sativa [5]
  Activity: 60%
Oryza sativa [6]
  Ratio: 37
[7]
  log K: 0.76
Oryza sativa [8]
  Ratio: 21
Oryza sativa [9]
  Activity: 72%
Oryza sativa [10]
  Activity: 60%

## CCCCCc1ccc(NC(=O)N[C@H](C)c2ccccc2)cc1
Oryza sativa [1]
  Activity: 65%
Oryza sativa [2]
  Activity: 69%
Oryza sativa [3]
  Ratio: 27
Oryza sativa [4]
  Activity: 100%
Oryza sativa [5]
  Activity: 97%
Oryza sativa [6]
  Ratio: 38
[7]
  log K: 0.912
Oryza sativa [8]
  Ratio: 3
Oryza sativa [9]
  Activity: 101%
Oryza sativa [10]
  Activity: 54%

## CCCCCc1ccc(NC(=O)N[C@@H](C)c2ccccc2)cc1
Oryza sativa [1]
  Activity: 59%
Oryza sativa [2]
  Activity: 71%
Oryza sativa [3]
  Ratio: 16
Oryza sativa [4]
  Activity: 98%
Oryza sativa [5]
  Activity: 93%
Oryza sativa [6]
  Ratio: 43
[7]
  log K: 0.912
Oryza sativa [8]
  Ratio: 9
Oryza sativa [9]
  Activity: 98%
Oryza sativa [10]
  Activity: 55%

## CCCCCCc1ccc(NC(=O)N[C@H](C)c2ccccc2)cc1
Oryza sativa [1]
  Activity: 54%
Oryza sativa [2]
  Activity: 61%
Oryza sativa [3]
  Ratio: 9
Oryza sativa [4]
  Activity: 100%
Oryza sativa [5]
  Activity: 101%
Oryza sativa [6]
  Ratio: 22
[7]
  log K: 1.081
Oryza sativa [8]
  Ratio: 6
Oryza sativa [9]
  Activity: 101%
Oryza sativa [10]
  Activity: 52%

## CCCCCCc1ccc(NC(=O)N[C@@H](C)c2ccccc2)cc1
Oryza sativa [1]
  Activity: 54%
Oryza sativa [2]
  Activity: 61%
Oryza sativa [3]
  Ratio: 11
Oryza sativa [4]
  Activity: 99%
Oryza sativa [5]
  Activity: 99%
Oryza sativa [6]
  Ratio: 25
[7]
  log K: 1.081
Oryza sativa [8]
  Ratio: 6
Oryza sativa [9]
  Activity: 100%
Oryza sativa [10]
  Activity: 51%

## CCCCCCCc1ccc(NC(=O)N[C@H](C)c2ccccc2)cc1
Oryza sativa [1]
  Activity: 52%
Oryza sativa [2]
  Activity: 53%
Oryza sativa [3]
  Ratio: 5
Oryza sativa [4]
  Activity: 100%
Oryza sativa [5]
  Activity: 100%
Oryza sativa [6]
  Ratio: 9
[7]
  log K: 1.266
Oryza sativa [8]
  Ratio: 5
Oryza sativa [9]
  Activity: 100%
Oryza sativa [10]
  Activity: 51%

## CCCCCCCc1ccc(NC(=O)N[C@@H](C)c2ccccc2)cc1
Oryza sativa [1]
  Activity: 53%
Oryza sativa [2]
  Activity: 59%
Oryza sativa [3]
  Ratio: 9
Oryza sativa [4]
  Activity: 100%
Oryza sativa [5]
  Activity: 99%
Oryza sativa [6]
  Ratio: 21
[7]
  log K: 1.266
Oryza sativa [8]
  Ratio: 4
Oryza sativa [9]
  Activity: 99%
Oryza sativa [10]
  Activity: 51%

## C[C@@H](NC(=O)Nc1ccccc1C(F)(F)F)c1ccccc1
Oryza sativa [1]
  Activity: 54%
Oryza sativa [2]
  Activity: 58%
Oryza sativa [3]
  Ratio: 11
Oryza sativa [4]
  Activity: 99%
Oryza sativa [5]
  Activity: 54%
Oryza sativa [6]
  Ratio: 42
[7]
  log K: 0.456
Oryza sativa [8]
  Ratio: 10
Oryza sativa [9]
  Activity: 95%
Oryza sativa [10]
  Activity: 55%

## C[C@H](NC(=O)Nc1ccccc1C(F)(F)F)c1ccccc1
Oryza sativa [1]
  Activity: 70%
Oryza sativa [2]
  Activity: 92%
Oryza sativa [3]
  Ratio: 40
Oryza sativa [4]
  Activity: 97%
Oryza sativa [5]
  Activity: 97%
Oryza sativa [6]
  Ratio: 85
[7]
  log K: 0.456
Oryza sativa [8]
  Ratio: 12
Oryza sativa [9]
  Activity: 98%
Oryza sativa [10]
  Activity: 56%
